In patent US11479604B2, “Immunomodulatory peptides and methods for modulating the immune system in a subject” (Recepta Biopharma S.A., priority 2017, dated 2022):
Entries after “also recorded” stand apart in the source; their conditions may differ.

Legend:
[1] = tested on: mo-DC obtained from cancer patients' monocytes; assay: Allogeneic T cell proliferation induced by cancer patients' mo-DC; type: cell-based, human
Description: (§1) Mo-DC were co-cultured with allogeneic lymphocytes (DC:Ly=1:30) to evaluate their ability to induce lymphocyte proliferation. This was measured by carboxyfluorescein succinimidyl ester (CFSE—Molecular Probes) dilution and activation measured by correlation among CD4/CD25 and Foxp3 expression (Clavijo-Salomon et al., 2016).
Since it is well known that mo-DC from cancer patients can be functionally biased, but are not always so, the patients were separated into two groups, according to their mo-DC ability to induce allogeneic T cell proliferation. Patients whose mo-DC induced less than 35% of the phytohemagglutinin A (PHA)-induced response constituted one group (“defective”) and those whose mo-DC induced a response higher than 35% of the PHA response, the other (“normal”).

[2] = tested on: Myeloid DCs stimulated with recombinant mouse MIF; assay: Western blotting of MIF signalling in dendritic cells pre-treated with peptide; type: cell-based
Description: Protein lysates were separated by electrophoresis, and immunoblotting analyses were performed for: total AKT, total p44/42 MAPK (ERK1/2), total IKKα, total IkBα, total NF-kB p65, phospho-AKT (Ser473), phospho-ERK1/2 (Thr202/Tyr204), phospho-IKKα/β (Ser176/180), phospho-IkBα (Ser32) and phospho-NFkB p65 (Ser536). GAPDH was assayed for loading control. HRP-conjugated secondary antibodies were used, followed by incubation with the ECL substrate (Millipore, Billerica, Mass.). All primary and secondary antibodies were purchased from Cell Signaling Technologies (Beverly, Mass., USA). Anti-CD74 receptor was also assayed (Abcam, Cambridge, UK). Phosphorylation ratios were quantified using ImageJ software. Results are represented in arbitrary units normalized to untreated control lanes.
Early incubation with MIF increased p-Akt (Ser473). […] MIF also triggered p-ERK1/2 formation in DCs.

[3] = tested on: human mo-DC co-cultured with allogeneic lymphocytes; assay: Allogeneic lymphocyte proliferation induced by mo-DC of healthy donors (CFSE); type: cell-based; conditions: TNF, tumor lysate and peptide; mo-DC:lymphocyte 1:30
Description: as §1
After two days in co-culture, the dilution of CFSE in lymphocytes was evaluated as a measurement of lymphocyte proliferation.

[4] = tested on: colorectal CT26 carcinoma cells; assay: Subcutaneous syngeneic colorectal carcinoma model; type: in vivo, Balb/c mice; conditions: CT26 of moderate virulence (ATCC, CRL-2638); 300 μg i.p., 5 consecutive days
[5] = tested on: human mo-DC from healthy donors; assay: mo-DC generated under tolerogenic, TNF-alpha or LPS conditions, flow cytometry; type: cell-based
Description: To further evaluate and confirm this property, mo-DC were generated from healthy donors cells in three different conditions, all in the presence of GM-CSF (50 ng/mL) and IL-4 (50 ng/mL). To one group of cells at day 5, TGF-beta ([…]) and IL-10 (1 ug/mL) were added; to a second group, at day 5, TNF-alpha was added and to a third group, LPS (100 ng/mL) was added at day 6. The first condition is known to induce phenotypic changes in mo-DC consistent with a tolerogenic activity of the cells, while both other conditions generate mature mo-DC, with LPS representing a stronger maturation stimulus than TNF-alpha. […] At day 7 all cells were harvested and analyzed by flow cytometry.

B16F10-Nex2 melanoma = assay: Subcutaneous melanoma model; type: in vivo, C57BL/6 mice; conditions: i.p. administration
Description: Male C57BL/6 mice, 6 to 8-week-old were obtained from the Center for Development of Experimental Models (CEDEME), Federal University of Sao Paulo (UNIFESP). For the in vivo metastatic model, C57BL/6 mice received one intravenous (i.v.) injection of 2×10^5 viable B16-F10-Next melanoma cells in 100 μL. […] The control group received 100 μL PBS. Twenty-two days later, mice (minimum n=3 per group) had their lungs harvested, and the number of macroscopic melanotic nodules were counted. The Ethical Committee of Federal University of São Paulo, Project no. 1234, 2011, approved all experiments with animals, according to International guidelines. For the subcutaneous model, mice were injected with 5×10^5 tumor cells suspended in 100 μL of PBS in the right flank via the subcutaneous route. The peptide (300 μg) was solubilized in 10 μL of distilled H2O and 90 μL of PBS and injected per mouse via the intraperitoneal route. The administration of the peptide was performed in 5 alternate days initiating one day after tumor challenge. Tumor longitudinal diameter (D) and transverse diameter (d) were measured every 2 days until the tumor volume reached 3,000 mm3. Animals were sacrificed when the allowed volume was reached. Volume was calculated using the formula v=Dd^2×0.52. […]

human mo-DC = assay: Expression of MIF receptor and co-receptors by human mo-DC; type: cell-based
Description: CD44 expression was evaluated by BV-421-labeled monoclonal antibodies and negative controls in the figure refer to unlabeled cells.
Negative controls in the figure refer to unlabeled cells.
The parameters included in the analysis were the expression of HLA-DR (BV-510 labeled mAb), PD-L1 (PE-labeled mAb), CD44 (BV-421-labeled mAb), CD74 (FITC-labeled mAb) and CXCR4 (PE-Cy5-labeled mAb).

CD11c+ cells = assay: TGF-beta1 ELISA of CD11c+ cells from lymphoid organs of melanoma-bearing treated mice; type: in vivo, C57Bl6 mice; conditions: 300 μg/dose i.p., day 17
Description: Animals were sacrificed on day 17 and their lungs, cervical and axillary lymph nodes and spleen were processed for examination. Lymph nodes and spleen were macerated separately, DMEM was added and passed through a cell strainer. CD11c+ cells were isolated using mouse CD11c+ beads and magnetic sorting. Cells were suspended in R10 medium and plated in […] at 10^6 cells/well. Cells were incubated for 24 h with or without tumor cell lysate (B16F10 stimulus). The supernatant was used in a TGF-beta1 ELISA test.

[6] = tolerogenic conditions (TGF-beta+IL-10)

[CARGETARATFAYWGQGC], NH2 (C-C) [Rb9]
ability of "defective" mo-DC to induce allogeneic T cell proliferation [1]: enhanced the ability
lympho-stimulatory activity of "normal" mo-DC [1]: inhibited the lympho-stimulatory activity
ERK1/2 phosphorylation ([2]; DCs pre-incubated with peptide 6 h, then rMIF): reduced p-ERK1/2
Akt phosphorylation (Ser473) ([2]; DCs pre-incubated with peptide 6 h, then rMIF, early (2 min), vs rMIF alone): Phosphorylation increased even more
NFkB p65 phosphorylation (Ser536) ([2]; DCs pre-stimulated 6 h, then recombinant-MIF, 5, 10 and 20 min): tended to attenuate the MIF response; also recorded: decreased intracellular NFkB p65 phosphorylation
phosphorylation of IKKαβ and IkBα ([2]; DCs pre-stimulated 6 h, then recombinant-MIF, short incubation): tended to attenuate the MIF response; also recorded: decreased IKKαβ and IkBα
lympho-stimulatory ability of mo-DC [3]: further enhance the lympho-stimulatory ability
subcutaneous tumor growth [4]: significantly delayed
number of CD11c+HLA-DR+ cells ([5]; LPS-treated cells): decreased the number of cells
percentage of CD11c+HLA-DR+ cells ([5]; TGF-beta+IL-10 group): increased the percentage of cells
percentage of CD11c+HLA-DR+ cells ([5]; TNF group): little effect
co-stimulatory potential (CD80 and CD86 double-positive cells) ([5]; mild stimulus (TNF-alpha)): partially inhibitory
maturation of mo-DC (HLA-DR+CD83+) ([5]; mild stimulus (TNF-alpha)): enhanced their maturation
co-stimulatory potential (CD80 and CD86 double-positive cells) ([5]; strongly stimulated by LPS): clearly inhibitory
maturation of mo-DC (HLA-DR+CD83+) ([5]; strongly stimulated by LPS): inhibitory
co-stimulatory potential (CD80 and CD86 double-positive cells) [5, 6]: increased their co-stimulatory potential
maturation of mo-DC (HLA-DR+CD83+) [5, 6]: increased the maturation
response of subcutaneous growing melanoma to peptide (B16F10-Nex2 melanoma): much more resistant; also recorded: resistant
CD74^lowCXCR4^low cell subpopulation (tSNE analysis) (human mo-DC; LPS-stimulated human mo-DC): disappearance of a CD74^lowCXCR4^low cell subpopulation
expression of the MIF co-receptor CXCR4 after treatment (human mo-DC; LPS-stimulated human mo-DC, 16.7% without peptide): 28.2%
expression of the MIF receptor CD74 after treatment (human mo-DC; LPS-stimulated human mo-DC, 56.8% without peptide): 87.5%
reduction in CD44 intensity (MFI) (human mo-DC; TGF-beta+IL-10-treated human mo-DC): 20%
frequency of CD44 positive cells after treatment (human mo-DC; TGF-beta+IL-10-treated human mo-DC, 57% without peptide): 52%
TGF-beta in tumor-lysate stimulated CD11c+ cells from the spleen (CD11c+ cells): increased
TGF-beta secreted by lymph node CD11c+ cells (CD11c+ cells; vs vehicle (PBS) control cells stimulated by melanoma lysate): greatly reduced
